ChEMBL document CHEMBL3044859, “Antimicrobial activity of Schiff bases of coumarin-incorporated 1,3,4-oxadiazole derivatives: an in vitro evaluation” (2013)

Columns and labels:
Type in all cases: functional
Candida albicans [1] = experiment: Growth inhibition of Candida albicans ATCC 10231 at 100 ug/ml by cup-plate method relative to control; details: read-out: GI
Candida albicans [2] = experiment: Antifungal activity against Candida albicans ATCC 10231 at 100 ug/ml by cup-plate method; details: read-out: DIZ
Staphylococcus aureus [3] = experiment: Growth inhibition of Staphylococcus aureus […] at 100 ug/ml by cup-plate method relative to control; details: read-out: GI
Escherichia coli = experiment: Antibacterial activity against Escherichia coli […] at 100 ug/ml by cup-plate method; details: read-out: DIZ
Staphylococcus aureus [4] = experiment: Antibacterial activity against Staphylococcus aureus […] at 100 ug/ml by cup-plate method; details: read-out: DIZ

Structure (SMILES) | inhibition of growth at 100 µg/mL (Candida albicans [1]) [%] | zone of inhibition at 100 µg/mL (Candida albicans [2]) [mm] | inhibition of growth at 100 µg/mL (Staphylococcus aureus [3]) [%] | zone of inhibition at 100 µg/mL (Escherichia coli) [mm] | zone of inhibition at 100 µg/mL (Staphylococcus aureus [4]) [mm]
NNC(=O)c1cc2ccccc2oc1=O | 40 | 8 | 40 | 9 | 10
COc1ccccc1/C=N/c1nnc(-c2cc3ccccc3oc2=O)o1 | 65 | 13 | 56 | 15 | 14
COc1cccc(/C=N/c2nnc(-c3cc4ccccc4oc3=O)o2)c1 | 70 | 14 | 56 | 15 | 14
O=c1oc2ccccc2cc1-c1nnc(/N=C/c2ccccc2F)o1 | 65 | 13 | 48 | 10 | 12
O=c1oc2ccccc2cc1-c1nnc(/N=C/c2ccc([N+](=O)[O-])cc2)o1 |  |  | 64 | 12 | 17
O=c1oc2ccccc2cc1-c1nnc(/N=C/c2cccc(F)c2)o1 | 55 | 11 | 48 | 10 | 12
O=c1oc2ccccc2cc1-c1nnc(/N=C/c2ccccc2)o1 | 60 | 12 | 80 | 20 | 20
O=c1oc2ccccc2cc1-c1nnc(/N=C/c2cccc(Cl)c2)o1 | 70 | 14 |  | 17 | 
O=c1oc2ccccc2cc1-c1nnc(/N=C/c2ccc(Cl)cc2)o1 | 75 | 15 |  | 17 | 
O=c1oc2ccccc2cc1-c1nnc(/N=C/c2ccccc2Cl)o1 | 65 | 13 |  | 17 | 
O=c1oc2ccccc2cc1-c1nnc(/N=C/c2ccc(F)cc2)o1 | 50 | 10 | 48 | 15 | 12
COc1ccc(/C=N/c2nnc(-c3cc4ccccc4oc3=O)o2)cc1 | 60 | 12 | 56 | 10 | 14
CN(C)c1ccc(/C=N/c2nnc(-c3cc4ccccc4oc3=O)o2)cc1 | 80 | 16 | 48 | 12 | 12
O=c1oc2ccccc2cc1-c1nnc(/N=C/c2ccccc2[N+](=O)[O-])o1 |  |  | 64 | 14 | 17
O=c1oc2ccccc2cc1-c1nnc(/N=C/c2cccc(O)c2)o1 | 55 | 11 | 40 | 15 | 10
O=c1oc2ccccc2cc1-c1nnc(/N=C/c2ccccc2O)o1 | 50 | 10 | 40 | 12 | 10
COc1ccc(/C=N/c2nnc(-c3cc4ccccc4oc3=O)o2)cc1OC | 50 | 10 | 48 | 10 | 12
O=c1oc2ccccc2cc1-c1nnc(/N=C/c2ccc(O)cc2)o1 | 45 | 9 | 40 | 10 | 10
O=c1oc2ccccc2cc1-c1nnc(/N=C/c2cccc([N+](=O)[O-])c2)o1 |  |  | 64 | 12 | 17
O=C(O)c1cn(C2CC2)c2cc(N3CCNCC3)c(F)cc2c1=O [CIPROFLOXACIN] |  |  | 100 |  | 25
CC(=O)N1CCN(c2ccc(OCC3COC(Cn4ccnc4)(c4ccc(Cl)cc4Cl)O3)cc2)CC1 (configuration not stated) [KETOCONAZOLE] | 100 | 20 |  |  | 
